Measured values: patent US6737383B1, “Herbicidal oxadiazolidines” (priority 1999, dated 2004)

Legend:
corn = assay: Test B pre/postemergence corn; format: in vivo, Zea mays
Outline: (§1)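 Test chemicals in a non-phytotoxic solvent mixture with surfactant were sprayed preemergence onto planted seeds and postemergence onto plants 2 to 18 cm tall (1- to 4-leaf stage). After twelve to sixteen days in a greenhouse, injury was visually rated against untreated controls from 0 (no effect) to 10 (complete control).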

rice = assay: Test B flood test rice; format: in vivo, Oryza sativa
Outline: (§2)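 Plants were grown to the 2-leaf stage before treatment with test chemical, then held in a greenhouse for twelve to sixteen days. Injury was visually rated against untreated controls on a 0–10 scale, where 0 is no effect and 10 is complete control.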

surinam grass = assay: Test B pre/postemergence surinam grass; format: in vivo, Brachiaria decumbens
Outline: as §1

soybean = assay: Test B pre/postemergence soybean; format: in vivo, Glycine max
Outline: as §1

smallflower flatsedge = assay: Test B flood test smallflower flatsedge; format: in vivo, Cyperus difformis
Outline: as §2

rape = assay: Test B pre/postemergence rape; format: in vivo, Brassica napus
Outline: as §1

bedstraw = assay: Test B pre/postemergence bedstraw; format: in vivo, Galium aparine
Outline: as §1

sugar beet = assay: Test B pre/postemergence sugar beet; format: in vivo, Beta vulgaris; settings: for Plant response rating, Sugarbeets: Rate 250 g/ha
Outline: as §1

morningglory = assay: Test B pre/postemergence morningglory; format: in vivo, Ipomoea hederacea
Outline: as §1

blackgrass = assay: Test B pre/postemergence blackgrass; format: in vivo, Alopecurus myosuroides
Outline: as §1

duck salad = assay: Test B flood test duck salad; format: in vivo, Heteranthera limosa
Outline: as §2

velvetleaf = assay: Test B pre/postemergence velvetleaf; format: in vivo, Abutilon theophrasti; settings: for Plant response rating, Velvetleaf: Rate 250 g/ha
Outline: as §1

bamyardgrass = assay: Test B flood test barnyardgrass; format: in vivo, Echinochloa crus-galli
Outline: as §2

pigweed = assay: Test B pre/postemergence pigweed; format: in vivo, Amaranthus retroflexus
Outline: as §1

purple nutsedge = assay: Test B pre/postemergence purple nutsedge; format: in vivo, Cyperus rotundus
Outline: as §1

giant foxtail = assay: Test B pre/postemergence giant foxtail; format: in vivo, Setaria faberii
Outline: as §1

[1] = Postemergence, Rate 125 g/ha, scale of 0 to 10 where 0 is no effect and 10 is complete control
[2] = Postemergence, Rate 250 g/ha, scale 0 to 10, 0 no effect, 10 complete control
[3] = Preemergence, Rate 62 g/ha, scale 0 to 10 (0 no effect, 10 complete control)
[4] = Preemergence, Rate 125 g/ha, scale 0 to 10 (0 no effect, 10 complete control)
[5] = Preemergence, Rate 250 g/ha, scale of 0 to 10 where 0 is no effect and 10 is complete control
[6] = Preemergence, Rate 500 g/ha, scale 0 to 10 (0 no effect, 10 complete control)
[7] = Rate 62 g/ha, Postemergence, scale of 0 to 10 where 0 is no effect and 10 is complete control
[8] = Rate 500 g/ha, Postemergence, scale 0 to 10, 0 no effect, 10 complete control
[9] = Rate 250 g/ha, headed Pre-emergence (flood test species), scale 0 to 10 (0 no effect, 10 complete control)
[10] = Rate 500 g/ha, headed Pre-emergence (flood test species), scale 0 to 10 (0 no effect, 10 complete control)
[11] = Rate 1000 g/ha, Pre-emergence (as headed), scale 0 to 10
[12] = Rate 2000 g/ha, Pre-emergence (as headed), scale 0 to 10
[13] = Postemergence, Rate 62 g/ha, scale 0 to 10, 0 is no effect, 10 is complete control
[14] = Rate 125 g/ha, Postemergence, scale 0 to 10, 0 no effect, 10 complete control
[15] = Rate 250 g/ha, Postemergence, scale 0 to 10, 0 is no effect, 10 is complete control
[16] = Preemergence, Rate 125 g/ha, 0 is no effect, 10 is complete control
[17] = Preemergence, scale of 0 to 10 where 0 is no effect and 10 is complete control
[18] = Postemergence, scale 0 to 10, 0 is no effect, 10 is complete control

In the case of `CCCn1c(=O)on(C(=O)N(c2ccc(Cl)cc2)C(C)C)c1=O` [Compound 119], the “Corn plant response rating” value (corn; [1]) is reported as 0, the “Corn plant response rating” value (corn; [2]) is reported as 0 and the “Corn plant response rating” value (corn; [3]) is reported as 0. The “Plant response rating, Corn” value (corn; [4]) was 0, the “Plant response rating, Corn” value (corn; [5]) was 0 and the “Corn plant response rating” value (corn; [6]) was 2. For the same compound, the “Corn plant response rating” value (corn; [7]) was 0, the “Corn plant response rating” value (corn; [8]) was 0 and the “Plant response rating, Rice” value (rice; Rate 250 g/ha, Postemergence (flood test), scale 0 to 10, 0 is no effect, 10 is complete control) was 0. The “Rice plant response rating” value (rice; [9]) was 0, the “Plant response rating, Rice” value (rice; [10]) was 0 and the “Rice plant response rating” value (rice; Rate 500 g/ha, listed under Postemergence (flood test species), scale 0 to 10, 0 no effect, 10 complete control) was 0. The “Rice plant response rating” value (rice; [11]) was 0, the “Rice plant response rating” value (rice; [12]) was 0 and the “B. signalgrass plant response rating” value (surinam grass; [13]) was 0. For the same compound, the “B. signalgrass plant response rating” value (surinam grass; [2]) was 3, the “B. signalgrass plant response rating” value (surinam grass; [3]) was 5 and the “Plant response rating, B. signalgrass” value (surinam grass; [4]) was 7. For the same compound, the “Plant response rating, B. signalgrass” value (surinam grass; [5]) was 7, the “B. signalgrass plant response rating” value (surinam grass; [6]) was 9 and the “B. signalgrass plant response rating” value (surinam grass; [14]) was 0. The “B. signalgrass plant response rating” value (surinam grass; Rate 500 g/ha, Postemergence, scale of 0 to 10 where 0 is no effect and 10 is complete control) was 5, the “Soybean plant response rating” value (soybean; [1]) was 2 and the “Soybean plant response rating” value (soybean; [3]) was 0. The “Plant response rating, Soybean” value (soybean; [4]) was 0, the “Plant response rating, Soybean” value (soybean; [5]) was 0 and the “Soybean plant response rating” value (soybean; [6]) was 0. For the same compound, the “Soybean plant response rating” value (soybean; [7]) was 1, the “Plant response rating, Soybean” value (soybean; [15]) was 4 and the “Soybean plant response rating” value (soybean; [8]) was 6. For the same compound, the “S. Flatsedge plant response rating” value (smallflower flatsedge; Pre-emergence, Rate 1000 g/ha, scale 0 to 10 (0 no effect, 10 complete control)) was 0, the “S. Flatsedge plant response rating” value (smallflower flatsedge; [9]) was 0 and the “Plant response rating, S. Flatsedge” value (smallflower flatsedge; [10]) was 0. The “S. Flatsedge plant response rating” value (smallflower flatsedge; [12]) was 0, the “Rape plant response rating” value (rape; [1]) was 0 and the “Rape plant response rating” value (rape; [2]) was 2. The “Rape plant response rating” value (rape; [3]) was 4, the “Plant response rating, Rape” value (rape; [4]) was 6 and the “Plant response rating, Rape” value (rape; [5]) was 7. For the same compound, the “Rape plant response rating” value (rape; [6]) was 9, the “Rape plant response rating” value (rape; [7]) was 0 and the “Rape plant response rating” value (rape; [8]) was 4. The “Bedstraw plant response rating” value (bedstraw; [13]) was 0, the “Bedstraw plant response rating” value (bedstraw; [2]) was 4 and the “Plant response rating, Bedstraw” value (bedstraw; [4]) was 0. For the same compound, the “Plant response rating, Bedstraw” value (bedstraw; [5]) was 2, the “Bedstraw plant response rating” value (bedstraw; [6]) was 8 and the “Bedstraw plant response rating” value (bedstraw; [14]) was 2. The “Bedstraw plant response rating” value (bedstraw; [8]) was 8, the “Sugarbeets plant response rating” value (sugar beet; [1]) was 0 and the “Sugarbeets plant response rating” value (sugar beet; [3]) was 3. The “Sugarbeets plant response rating (0 to 10 scale)” value (sugar beet; [16]) was 4, the “Plant response rating, Sugarbeets” value (sugar beet; [17]) was 8 and the “Sugarbeets plant response rating” value (sugar beet; [6]) was 8. The “Sugarbeets plant response rating” value (sugar beet; [7]) was 0, the “Plant response rating, Sugarbeets” value (sugar beet; [18]) was 0 and the “Sugarbeets plant response rating” value (sugar beet; [8]) was 4. For the same compound, the “Morningglory plant response rating” value (morningglory; [1]) was 7, the “Morningglory plant response rating” value (morningglory; [2]) was 7 and the “Morningglory plant response rating” value (morningglory; [3]) was 0. The “Plant response rating, Morningglory” value (morningglory; [4]) was 2, the “Plant response rating, Morningglory” value (morningglory; [5]) was 2 and the “Morningglory plant response rating” value (morningglory; [6]) was 5. The “Morningglory plant response rating” value (morningglory; [7]) was 3, the “Morningglory plant response rating” value (morningglory; [8]) was 8 and the “Blackgrass plant response rating” value (blackgrass; [1]) was 3. The “Blackgrass plant response rating” value (blackgrass; [2]) was 7, the “Blackgrass plant response rating” value (blackgrass; [3]) was 5 and the “Plant response rating, Blackgrass” value (blackgrass; [4]) was 8. For the same compound, the “Plant response rating, Blackgrass” value (blackgrass; [5]) was 9, the “Blackgrass plant response rating” value (blackgrass; [6]) was 9 and the “Blackgrass plant response rating” value (blackgrass; [7]) was 2. For the same compound, the “Blackgrass plant response rating” value (blackgrass; [8]) was 8, the “Ducksalad plant response rating” value (duck salad; [9]) was 0 and the “Plant response rating, Ducksalad” value (duck salad; [10]) was 0. For the same compound, the “Ducksalad plant response rating” value (duck salad; [11]) was 0, the “Ducksalad plant response rating” value (duck salad; [12]) was 0 and the “Velvetleaf plant response rating” value (velvetleaf; [1]) was 2. The “Velvetleaf plant response rating” value (velvetleaf; [3]) was 0, the “Velvetleaf plant response rating (0 to 10 scale)” value (velvetleaf; [16]) was 4 and the “Plant response rating, Velvetleaf” value (velvetleaf; [17]) was 5. The “Velvetleaf plant response rating” value (velvetleaf; [6]) was 6, the “Velvetleaf plant response rating” value (velvetleaf; [7]) was 0 and the “Plant response rating, Velvetleaf” value (velvetleaf; [18]) was 3. For the same compound, the “Velvetleaf plant response rating” value (velvetleaf; [8]) was 3, the “Barnyardgrass plant response rating” value (bamyardgrass; [9]) was 0 and the “Plant response rating, Barnyardgrass” value (bamyardgrass; [10]) was 0. The “Barnyardgrass plant response rating” value (bamyardgrass; [11]) was 0, the “Barnyardgrass plant response rating” value (bamyardgrass; Rate 2000 g/ha, Pre-emergence (as headed), scale 0 to 10, 0 no effect, 10 complete control) was 0 and the “Redroot pigweed plant response rating” value (pigweed; [1]) was 0. The “Redroot pigweed plant response rating” value (pigweed; [3]) was 10, the “Plant response rating, Redroot pigweed” value (pigweed; [4]) was 10 and the “Plant response rating, Redroot pigweed” value (pigweed; [5]) was 10. For the same compound, the “Redroot pigweed plant response rating” value (pigweed; [6]) was 10, the “Redroot pigweed plant response rating” value (pigweed; [7]) was 0 and the “Plant response rating, Redroot pigweed” value (pigweed; [15]) was 2. For the same compound, the “Redroot pigweed plant response rating” value (pigweed; [8]) was 6, the “Nutsedge plant response rating” value (purple nutsedge; [1]) was 0 and the “Nutsedge plant response rating” value (purple nutsedge; [2]) was 0. The “Nutsedge plant response rating” value (purple nutsedge; [3]) was 0, the “Plant response rating, Nutsedge” value (purple nutsedge; [4]) was 0 and the “Plant response rating, Nutsedge” value (purple nutsedge; [5]) was 0. For the same compound, the “Nutsedge plant response rating” value (purple nutsedge; [6]) was 6, the “Nutsedge plant response rating” value (purple nutsedge; [7]) was 0 and the “Nutsedge plant response rating” value (purple nutsedge; [8]) was 0. The “Giant foxtail plant response rating” value (giant foxtail; [1]) was 8, the “Giant foxtail plant response rating” value (giant foxtail; [2]) was 8 and the “Giant foxtail plant response rating” value (giant foxtail; [3]) was 9. For the same compound, the “Plant response rating, Giant foxtail” value (giant foxtail; [4]) was 10, the “Plant response rating, Giant foxtail” value (giant foxtail; [5]) was 10 and the “Giant foxtail plant response rating” value (giant foxtail; [6]) was 10. The “Giant foxtail plant response rating” value (giant foxtail; [7]) was 8 and the “Giant foxtail plant response rating” value (giant foxtail; [8]) was 8.
